From patent publication US20260325655A1, “DECREASING THE INTRINSICALLY DISORDERED PROTEIN ALPHA-SYNUCLEIN’S LEVELS BY TARGETING ITS STRUCTURED MRNA WITH A RIBONUCLEASE TARGETING CHIMERA” (University of Florida Research Foundation, Incorporated, priority 2023, published 2026)

What was measured:
fully base paired RNA = test: MST binding to fully base paired control RNA; conditions: microscale thermophoresis
Experimental: Binding Affinity Measurements: Microscale Thermophoresis (MST). Binding affinity measurements were performed on a Monolith NT.115 MST system (NanoTemper Technologies) with Cy5-labeled oligonucleotides. Briefly, Cy5-labeled RNA (5 nM) was prepared in 1× Folding Buffer and folded by heating at 60° C. for 5 min and then slowly cooling to room temperature. After cooling, Tween-20 was added to a final concentration of 0.1% (v/v). Compound solutions were prepared separately in 30 μL of 1× Assay Buffer at a final concentration of 5 μM (1% (v/v) DMSO), followed by 1:1 serial dilutions in 1× Assay Buffer. RNA and compound solutions were then mixed 1:1 by volume.
Samples were incubated for 20 min at room temperature and then loaded into premium capillaries (NanoTemper Technologies, Cat #MO-K025). The following parameters were used for MST measurement: 5-20% LED power (adjusted to keep fluorescence intensity between 8000 and 18000), 80% MST power, Laser-On time=30 s, and Laser-Off time=5 s. The resulting data were analyzed by calculating the change in thermophoresis as a function of compound concentration and fitted by Equation (3) in MST analysis software (NanoTemper Technologies) to yield the dissociation constant (Kd):
where F is the concentration of fluorescently labeled RNA; unbound and bound refer to the thermophoresis signal at completely unbound and bound state of RNA, respectively; c is the concentration of the compound; f (c) is the thermophoresis signal at compound concentration of c; Kd is the dissociation constant.

SH-SY5Y cells = test: proteome-wide analysis in SH-SY5Y cells; format: cell-based, human; conditions: for number of proteins downregulated / number of proteins upregulated / protein expression of seven genes enriched by Syn-CLIP (global proteomics) / number of proteins affected / percent of proteins affected: 2 μM; for number of proteins affected: of 3,436 (Syn-RiboTAC) or 2,813 (Synucleozid-2.0) proteins detected; for percent of proteins affected: of proteins detected
Experimental: Treatment of SH-SY5Y cells with Syn-RiboTAC for proteome-wide studies. SH-SY5Y cells were seeded in 6-well plates (~60% confluency) and treated with vehicle (0.1% (v/v) DMSO) or Syn-RiboTAC as described above. After 48 h, the cells were gently washed twice with 1× DPBS, harvested by scraping, and resuspended in 1× DPBS. They were then lysed by sonication. Protein concentrations were determined by using BCA Protein Assay Kit (Pierce Biotechnology). Reduction of […]-synuclein protein levels by Syn-RiboTAC were confirmed by Western blotting as described above. Protein samples were then denatured in 50 mM NH4HCO3, pH 8, containing 6 M urea and then reduced with 10 mM TCEP (tris(2-carboxyethyl)phosphine hydrochloride) for 30 min. The proteins were then alkylated with 25 mM iodoacetamide for 30 min in dark. Samples were diluted to 2 M urea containing 50 mM NH4HCO3, pH 8, and digested with trypsin (Thermo Scientific, 1.5 μL of 0.5 μg/μL) containing 1 mM CaCl2) (100× stock in water) at 37° C. for 12 h. Samples were acidified by adding acetic acid to a final concentration of 5% (v/v), desalted by using a self-packed C18 spin column, and dried. Samples obtained were analyzed by LC-MS/MS(as described below), and the MS data were processed with MaxQuant (as described below).
LC-MS/MS analysis and MaxQuant analysis. Peptides obtained above were resuspended in water containing 0.1% (v/v) formic acid and analyzed by using EASY-nLC 1200 nano-UHPLC coupled to Q Exactive HF-X Quadrupole-Orbitrap mass spectrometer (Thermo Scientific). Parameters for the chromatography column and elution methods were the same as previously described.^4 MS data were analyzed by using MaxQuant 14 (V1.6.1.0) and then searched against the human proteome (Uniprot) and a common list of contaminants (included in MaxQuant). The false discovery rate (FDR) for proteins, peptides and sites identification was set at 1%. Parameters were the same as described previously.^4

SNCA mRNA = SNCA mRNA in iPSC-induced dopaminergic neurons; format: cell-based, human
Experimental: RNA extraction and reverse transcription-quantitative polymerase chain reaction (RT-qPCR). Total RNA was extracted from cells using a Quick-RNA MiniPrep Kit (Zymo Research) per the manufacturer's protocol including DNase treatment. For each sample, 200 ng of RNA was reverse transcribed into cDNA by using a qScript cDNA Synthesis Kit (QuantaBio) according to the manufacturer's instructions. To assess the relative mRNA levels, RT-qPCR was performed in triplicate using SYBR Green PCR mater mix (Applied Biosystems) with a Quant Studio 5 Real-Time PCR system. The relative levels of mRNA were calculated by using the ΔΔCt method as previously described.^8
Dopamine neuron induction. For dopamine neuronal induction,^15,16 the dual-SMAD inhibition method^17 was used for floor plate (FP)-based midbrain dopamine (DA) neuron induction with modifications. Prior to differentiation, Matrigel matrix (BD) was thawed at 4° C. overnight or on ice until it is dissolved. Matrigel coated 6-well plates were prepared according to manufacturer's instructions and incubated at 37° C. for at least 1 h before use. iPSCs were dissociated with Accutase (STEMCELL Technologies) and plated (3.5×10^5-4×10^5 cells per cm^2) into a new Matrigel coated plate and grown in mTeSR medium (STEMCELL Technologies) with StemBeads FGF2 (StemCultures) and ROCK inhibitor Y27632 (5 μM, Tocris). […]

binding towards the fully base paired RNA (fully base paired RNA)	SMILES	enhancement in selectivity on the proteome vs Synucleozid 1.0 (SH-SY5Y cells)	number of proteins downregulated (SH-SY5Y cells)	number of proteins upregulated (SH-SY5Y cells)	protein expression of seven genes enriched by Syn-CLIP (global proteomics) (SH-SY5Y cells)	number of proteins affected (SH-SY5Y cells)	percent of proteins affected (SH-SY5Y cells) [%]	number of changed proteins that also showed the corresponding change at the transcript level (SH-SY5Y cells; of 194 changed proteins)	percent of changed proteins with corresponding transcript change (SH-SY5Y cells; of 194 changed proteins) [%]	decrease of SNCA transcript levels in dopaminergic neurons (SNCA mRNA)	effect on SNCA mRNA levels in dopaminergic neurons (in words) (SNCA mRNA)
no saturable binding	CCOC(=O)C1=C(Nc2ccccc2)S/C(=C\c2ccc(OCCOCCOCCOCCNC(=O)CCCOc3ccc(-n4c(SCC(=O)Nc5ccc6cn[nH]c6c5)nnc4-c4ccncc4)cc3)c(O)c2)C1=O [Syn-RiboTAC]	~ 16 -fold	114	80	not significantly altered	194	0.56	86	44	~ 50%	–
no saturable binding	O=C(CSc1nnc(-c2ccncc2)n1-c1ccc(Br)cc1)Nc1ccc2cn[nH]c2c1 [Synucleozid-2.0]	–	55	95	not significantly altered	150	0.53	–	–	–	no effect
